From patent US6423855B1, “Cytoprotective compounds” (Virginia Commonwealth University, priority 1996, dated 2002)
≈ marks a conversion by molar mass, not a printed value.

Tests used:
[1] = tested on: reflex sympathetic dystrophy (RSD); experiment: topical cream in patients with reflex sympathetic dystrophy; type: in vivo, human
Description: A patient presents with severe RSD characterized by persistent pain and limitation of movement at the wrist joint. […] Another patient presents with a two year history of RSD in the knee joint. This patient previously received arthroscopic evaluations. This patient also had limited range of motion and became addicted to narcotics in an attempt to reduce pain. […] The reduction in pain is immediate and the increased range of motion occurs within 10-20 minutes. This patient, who had been unemployed for an extended period, eliminated intake of narcotics and returned to work. A third patient presented with RSD of the foot and ankle. This patient had no eversion or inversion of the foot.

[2] = small bowel storage in perfusate solution, tissue weight; parameters: species or system rat; settings: 24 and 48 hours in the perfusate solution
Description: These drugs were also tested for their ability to enhance the preservation of tissues stored for subsequent transplantation. […] The graft was then transplanted into rats with or without intravenous (IV) infusion of 20 mg/kg PX-13 or mepacrine at the time of transplantation.

human blood cells = experiment: preservation of whole blood (LDH and hemoglobin release); type: cell-based
Description: The effect of PX-13 and mepacrine on whole blood cell viability were tested as a function of time of storage.
Heparinized human blood was centrifuged at 400×g and the resulting plasma was removed and replaced with an equal volume of Dulbecco's medium. The resuspended cells were then incubated at 37° C. for 0-72 hrs. in a shaking water bath. At the indicated times, a 0.8 ml aliquot was removed and centrifuged at 400×g to sediment cells. Appearance of lactate dehydrogenase (LDH) and hemoglobin in the supernate was indicative of cell injury. PX-13 and mepacrine stabilized cells and decreased the injury as evidenced by diminished levels of LDH and hemoglobin in the supernate. This is expressed as percent protection.

[3] = tested on: rat dorsal root ganglion cells; experiment: cultured rat dorsal root ganglion cells exposed to human disc PLA2; type: cell-based
Description: Primary cultures of rat dorsal root ganglion cells were used. Cells were washed 3-times with media to remove serum. Then, PX-13 (20 uM) in HEPES buffer or a buffer control was applied to the cells. After 10 min of incubation, purified human disc PLA2 (activity 1 umol/min) was added and the cells were incubated for an additional 60-90 min. Cells were then observed, fixed, and photographed 1.5 hrs after addition of PLA2.

platelets = experiment: platelet aggregation; type: cell-based; settings: 25-μM dose
Text: Applicants have also observed that PX-13 inhibited serotonin release by thrombin-stimulated platelets. This observation supports the contention that the PX compounds of the present invention may block release of inflammatory mediators in the coagulation cascade. This observation also supports the use of PX compounds to inhibit thrombin-induced platelet aggregation and to act as anti-clotting agents.

clone W2 (P.falciparum) = experiment: 3H-hypoxanthine incorporation, P.falciparum clone W2; type: cell-based; settings: Plasmodium falciparum, W2; chloroquine resistant, mefloquine sensitive clone, RBC culture; read-out: IC50 growth
[4] = therapeutic index LD50/ED50
[5] = tested on: ultraviolet-induced erythema; experiment: protection against ultraviolet-induced erythema; type: in vivo, hairless albino mice; settings: 1 = Best, 4 = Worst
Description: The human skin tests were conducted on three volunteer female subjects, ages 29-32; a cream base with no added active was included as a control, while the untreated skin served as an additional basis for evaluation. Sunburn tests were performed on a total of 30 hairless albino mice.
5.Protection against ultraviolet-induced ervthema. The protection against ultraviolet-induced erythema (i.e., the burn and irritation produced after exposure to ultraviolet radiation), was measured by first irradiating 12 mice with destructive 3130 angstrom (Å) rays, applying the creams, and then evaluating the skin cells for erythema.

[6] = tested on: rat dorsal root ganglion cells; experiment: cultured rat dorsal root ganglion cells exposed to snake venom PLA2; type: cell-based; settings: 1-3 umols/min/mg for 60 min
small bowel graft = experiment: small bowel transplantation ischemia-reperfusion injury; type: in vivo, rat
Description: These drugs were also tested for their ability to enhance the preservation of tissues stored for subsequent transplantation. The small bowel was removed from rats, washed free of luminal contents and the tissue stored in University of Wisconsin (UW) preservative media ±40 uM PX-13 or mepacrine for 48 hrs. The graft was then transplanted into rats with or without intravenous (IV) infusion of 20 mg/kg PX-13 or mepacrine at the time of transplantation.

[7] = tested on: PLA2 activity in extracts of rat bowel; experiment: PLA2 activity in extracts of rat bowel; type: biochemical
epidermal layer = experiment: transepidermal water loss; type: in vivo, human
Description: Two PX compounds PX-11 and PX-13 were evaluated in a cream formulation prepared under GMP. The chemicals were formulated into a bland cream and evaluated in the following human or mouse skin tests: (1) occluded patch test for irritation; (2) cell turnover rate; (3) transepidermal water loss; (4) skin moisturization; and (5) reduction in erythema after induced sunburn. The human skin tests were conducted on three volunteer female subjects, ages 29-32; a cream base with no added active was included as a control, while the untreated skin served as an additional basis for evaluation. Sunburn tests were performed on a total of 30 hairless albino mice. 3. Transepidermal water loss. This parameter was measured by affixing a flow cell on the forearm site, applying the cream, waiting 20 minutes, then flushing the volume with nitrogen and noting the moisture content of the effluent gases.

clone D6 (P. falciparum) = experiment: 3H-hypoxanthine incorporation, P.falciparum clone D6; type: cell-based; settings: Plasmodium falciparum, D6, read-out: IC50 growth
ischemic bowel = experiment: PLA2 release from ischemic bowel into media; settings: 24 hrs of ischemia
Text: The addition of PX-13 reduced the enzyme release by more than 80% during 24 hrs of ischemia.

[8] = patient 2, knee, cream combined with sympathetic blockade

CCCCCCCC/C=C\CCCCCCCC(=O)OCC(COC(=O)CCCCCCC/C=C\CCCCCCCC)(COC(=O)CCCCCCC/C=C\CCCCCCCC)NCCS(=O)(=O)O [PX-13, 2-[Tris(oleoyloxymethyl)methylamino]-1-ethanesulfonic acid]
pain relief ([1]; patient 1, wrist, about 4% in cream of Example 15, topical): immediate pain relief | pain and range of motion [1, 8]: decreases the patient's report of pain and provides a full range of motion | time to increased range of motion [1, 8]: 10 to 20 min | time to full eversion and inversion ([1]; patient 3, foot and ankle, about 4% cream): ≤ 20 min | pain relief ([1]; patient 3, foot and ankle, about 4% in cream vehicle): immediate and complete pain relief | weight of the tissues after storage [2]: reduced weight | Percent Protection Hemoglobin (human blood cells; 20 uM, 48 hr): 55% | Percent Protection LDH (human blood cells; 20 uM, 48 hr, 37° C.): 22% | Percent Protection Hemoglobin (human blood cells; 20 uM, 72 hr): 25% | Percent Protection LDH (human blood cells; 20 uM, 72 hr): 15% | Percent Protection Hemoglobin (human blood cells; 80 uM, 48 hr): 72% | Percent Protection LDH (human blood cells; 80 uM, 48 hr): 39% | Percent Protection Hemoglobin (human blood cells; 80 uM, 72 hr): 54% | Percent Protection LDH (human blood cells; 80 uM, 72 hr): 41% | Percent Protection Hemoglobin (human blood cells; 160 uM, 48 hr): 77% | Percent Protection LDH (human blood cells; 160 uM, 48 hr): 78% | Percent Protection Hemoglobin (human blood cells; 160 uM, 72 hr): 80% | Percent Protection LDH (human blood cells; 160 uM, 72 hr): 72% | cell morphology, compound alone ([3]; 20 uM alone): indistinguishable from control cultures | cell morphology, compound + human disc PLA2 ([3]; 20 uM, PLA2 activity 1 umol/min, 60-90 min): indistinguishable from control cultures | platelet aggregation (platelets): inhibited | IC50 (clone W2 (P.falciparum)): 13 µg/mL (≈ 12.7 µM) | therapeutic index (LD50/ED50) [4]: a large positive number | Post-Radiation Erythema Ranking Mean ([5]; Mean): 4.7 | Post-Radiation Erythema Ranking ([5]; Subject 3): 4 | protection against toxicity of purified snake venom PLA2 [6]: protected | gross and microscopic injury to tissue (small bowel graft; 40 uM in UW media 48 hrs, with or without 20 mg/kg IV at transplantation): dramatically reduced | bowel color after transplantation (small bowel graft; rat, in vivo): maintained normal bowel color | protection against ischemia and reperfusion injury (small bowel graft; small bowel transplantation): protect | effectiveness as PLA2 inhibitor relative to mepacrine [7]: more than 2 log units | inhibition of PLA2 activity [7]: inhibited | % Change in Transepidermal Water Loss (epidermal layer; forearm, 20 minutes after applying cream): −8.5% | effect on water loss from the epidermal layer (epidermal layer; in vivo): functioned as an occluding moisturizer | IC50 (clone D6 (P. falciparum)): 17 µg/mL (≈ 16.6 µM) | reduction of PLA2 enzyme release (ischemic bowel): more than 80%
